{"source": "patent US11661439B2", "about": "“Peptide hydrogels and use thereof” (The United States of America, as represented by the …, priority 2017, dated 2023)", "key": {"[1]": {"assay": "TEM analysis of peptide fibrils", "assay_type": "physicochemical", "details": "30 independent measurements", "protocol": "FIG. 4. Fibril visualization of β-hairpin peptide hydrogels. Transmission Electron Microscopy (TEM) images of peptide fibrils and frequency distributions determined from 30 independent measurements (scale bar=100 nm).\nTransmission electron microscopy (TEM) analysis. The hydrogel nanostructure of the peptide gels was observed using a Hitachi H-7650 transmission electron microscope at a voltage of 80 kV. A 1 wt % solution of peptide and an equal volume of buffer (50 mM HEPES containing 300 mM NaCl, pH 7.4) was mixed and incubated overnight at 37° C. to allow for gelation. The next day, samples for TEM analysis were prepared by suspending 5 μL of the resulting peptide gel in 195 μL of water to yield a 40-fold dilution. Small amounts (5 μL) of each diluted gel solution were applied to separate carbon coated copper grids. After 1 min, the grid was washed with water. Then, a 1 w/v % uranyl acetate aqueous solution was placed on each grid for negative staining. Excess staining solution was blotted away, left to air dry, and the grids were imaged immediately."}, "[2]": {"test_system": "human dermal fibroblasts (HDFs)", "assay": "3D cell encapsulation culture of HDFs in gels", "assay_type": "cell-based", "protocol": "3D cell culture in peptide gels. Peptides were initially dissolved in 285 mM sucrose at 1 wt % on ice and mixed with an equal volume of cell suspension in serum-free HEPES-supplemented DMEM (2×10^6 cells mL^−1). The cell-peptide suspension (5×10^4 cells per 50 μL per insert) was transferred to a Falcon cell culture insert (for 24-well plates, 8 μm pore size, Corning) and incubated at 37° C. for 30 min for gelation. These inserts were previously coated with the empty hydrogel (30 μL per insert) to avoid cell adhesion to the bottom surface of the inserts. After gelation of cell-peptide solution, 500 μL of Essential 8 Medium were added to the top and bottom of the gels. Type I collagen gels were prepared following manufacturer's instructions. Briefly, a 0.4 wt % collagen solution was prepared on ice and mixed with cell suspension in serum-free DMEM (4×10^6 cells mL^−1) at a ratio of 3:1 (0.3 wt % collagen, 1×10^6 cells mL^−1).\nCell viability assay. Cell viability was evaluated by live and dead cell staining after 2D and 3D cell culture. Serum-free DMEM containing 1 μM calcein-AM and 2 μM ethidium homodimer-1 was added to the cells (200 μL per well for 2D culture and 500 μL each to the top and bottom of the gels for 3D culture). After incubation at 37° C. for 30 min, live and dead cells were visualized using EVOS FL Auto Cell Imaging System (Thermo Fisher Scientific). For the pseudo-colored composite image of varying heights of encapsulated cells, images of the live-stained cells were captured every 5 μm of height. Then Z-stack images for each 100 μm were flattened using the EVOS software, and the flattened images were pseudo-colored and merged using ImageJ.\nCell proliferation assay. A cell proliferation assay was performed using Cell Counting Kit-8 (CCK-8, Dojindo Molecular Technologies) for 2D and 3D cell culture. […] Subsequently, media were transferred to 96-well plates (150 μL per well) and their absorbance measured at 450 nm relative to control viabilities from day 0 for 2D cell culture and day 1 for 3D cell culture. […]"}, "RFP-HDFs": {"test_system": "RFP-HDFs", "assay": "Hydrogel-based in vivo cell delivery with RFP fluorescence imaging", "set-up": "species or system athymic nude mice", "source_text": "In vivo studies. Six- to eight-week-old non-tumor bearing female athymic nude mice were used for this experiment (n=3). Animal care was in accordance with the procedures outlined in the Guide for Care and Use of Laboratory Animals (National Research Council, 1996; National Academy Press, Washington, D.C.) and animal protocols were approved by the Frederick National Laboratory for Cancer Research (FNLCR) Institutional Animal Care and Use Committee.\nHydrogel-based in vivo cell transplantation. RFP-HDFs were encapsulated in 0.5 wt % AcVES3-RGDV at 10^7 cells mL^−1 as described in the 3D cell culture section. After gelation, the cell-peptide gel (10^6 cells per 100 μL) was injected into the left dorsal region of the mouse and as a control, RFP-HDF suspension in serum-free DMEM (10^6 cells per 100 μL) was injected into the right dorsal region of the mouse.\nIn vivo fluorescence imaging. Multispectral fluorescence imaging was performed daily (Monday-Friday) for 42 days using a Maestro Flex imager (PerkinElmer). Briefly, mice were anesthetized for 3-4 minutes in an induction chamber with 3% isoflurane with filtered air (0.2 μm filter) used as a carrier at a flow rate of 1 liter per minute. After isoflurane induction, the mice were transferred to an imaging chamber, where isoflurane was reduced to 2% and O2 was used as a carrier. The imaging platform was kept at 37° C. to maintain the mouse's internal temperature. Image acquisition (Maestro software, ver. 2.10.0) of the RFP fluorescence signal utilized a 533±26 nm excitation filter (placed in front of the 300 W xenon excitation source), a 580 nm long-pass filter (placed in front of the CCD) and implementing a multispectral imaging acquisition of 550-720 nm range, 10 nm increment, auto exposure (typically 0.5-5 seconds per emission wavelength), with a 2×2 pixel binning, resulting in a stack of images (image cube). RFP signal was distinguished from the tissue autofluorescence by employing vendor specified unmixing protocol. Quantitative analysis was performed by drawing a standard circular region of interest (ROI) over the injection site of the unmixed RFP component image. The total RFP signal (scaled counts second^−1) within each ROI was measured and plotted as a function of time.\nCollection of RFP-HDFs from the tissue graft. After in vivo imaging on day 42, mice were euthanized using CO2 and ex vivo images (Maestro Software) were acquired by exposing the cell-peptide gel injection site. Image acquisition and processing were performed with the same parameters as performed for in vivo imaging as stated above. Utilizing the unmixed RFP image to guide resecting the RFP-positive tissue, the RFP positive cells were resected and then homogenized by squeezing them through a cell strainer. The collected cells were then cultured on a tissue culture plate with FBS-supplemented DMEM for 10 days and observed using an EVOS FL Auto Cell Imaging System."}}, "note": "Non-standard residues stand in square brackets, D forms with d. Residues, ends and D or L forms follow the SMILES beside them."}
{"smiles": "CC(=O)N[C@H](C(=O)N[C@@H](CCC(=O)O)C(=O)N[C@H](C(=O)N[C@@H](CO)C(=O)N[C@H](C(=O)N[C@@H](CO)C(=O)N[C@H](C(=O)N[C@@H](CCC(=O)O)C(=O)N[C@H](C(=O)N1CCC[C@@H]1C(=O)N1CCC[C@H]1C(=O)N[C@H](C(=O)N[C@@H](CCC(=O)O)C(=O)N[C@H](C(=O)N[C@@H](CO)C(=O)N[C@H](C(=O)N[C@@H](CCC(=O)O)C(=O)N[C@H](C(=O)N[C@@H](CCC(=O)O)C(=O)N[C@H](C(=O)NCC(=O)NCC(=O)NCC(=O)NCC(=O)N[C@@H](CCCNC(=N)N)C(=O)NCC(=O)N[C@@H](CC(=O)O)C(=O)N[C@H](C(N)=O)C(C)C)C(C)C)C(C)C)C(C)C)C(C)C)[C@@H](C)O)C(C)C)C(C)C)C(C)C)C(C)C)C(C)C", "note": "[AcVES3-RGDV] (Ac-VEVSVSVEV[dP]PTEVSVEVEVGGGGRGDV-NH2)", "values": [{"measurement": "average fibril width", "setting": "[1]", "result": "4.0±0.4", "unit": "nm"}, {"measurement": "cell proliferation rate relative to the collagen gel", "setting": "[2]; 3D culture, Essential 8 Medium", "result": "2-3 fold"}, {"measurement": "cell proliferation of encapsulated HDFs, 3D culture", "setting": "[2]; Essential 8 Medium, one week", "result": "proliferated well with minimal cell death"}, {"measurement": "distribution of encapsulated cells in the gel", "setting": "[2]; day 4, heights 0-500 μm", "result": "homogenously distributed throughout the gel matrix"}, {"measurement": "retention of cells after initial injection", "setting": "RFP-HDFs; 10^6 RFP-HDFs per 100 μL gel", "result": "over 40 days"}, {"measurement": "slowing of dissipation of injected cells versus cell suspension control", "setting": "RFP-HDFs; 10^6 RFP-HDFs per 100 μL, dorsal injection, from slopes of the lines", "result": "~6", "unit": "fold"}, {"measurement": "RFP signal still detected at injection site", "setting": "RFP-HDFs; day 42", "result": "approximately 2%"}, {"measurement": "inflammation around the injection site", "setting": "RFP-HDFs; day 42, dissected subcutaneous tissue", "result": "no apparent inflammation"}, {"measurement": "localization, retention and engraftment of delivered cells", "setting": "RFP-HDFs; mouse, in vivo", "result": "dramatically enhance localization and retention of the delivered cells and also support engraftment"}]}
